Assay results reported in US20210161855A1, “5-LIPOXYGENASE ANTAGONISTS” (INSTITUTO DE MEDICINA MOLECULAR JOÃO LOBO ANTUNES, priority 2017, published 2021).

Experiments:
EP3 = target: T1, EP3 (Homo sapiens, UniProt P43115); assay: Prostanoid EP3 receptor antagonism, functional assay; assay type: cell-based; settings: 150 μM
T1 sequence (P43115 1-390): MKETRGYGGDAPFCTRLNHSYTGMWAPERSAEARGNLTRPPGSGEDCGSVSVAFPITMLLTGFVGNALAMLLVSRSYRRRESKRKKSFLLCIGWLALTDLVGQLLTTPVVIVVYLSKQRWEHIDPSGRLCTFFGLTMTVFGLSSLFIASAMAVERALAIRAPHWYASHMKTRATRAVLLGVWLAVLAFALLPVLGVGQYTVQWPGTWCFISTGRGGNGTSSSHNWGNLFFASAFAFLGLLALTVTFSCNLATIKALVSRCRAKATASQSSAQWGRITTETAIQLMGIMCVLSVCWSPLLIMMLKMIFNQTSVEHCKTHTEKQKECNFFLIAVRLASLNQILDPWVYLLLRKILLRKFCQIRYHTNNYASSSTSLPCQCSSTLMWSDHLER

EP4 = EP4 (Homo sapiens, UniProt P35408); assay: Prostanoid EP4 receptor antagonism, functional assay; assay type: cell-based; settings: 150 μM
EP4, sequence (P35408 whole entry): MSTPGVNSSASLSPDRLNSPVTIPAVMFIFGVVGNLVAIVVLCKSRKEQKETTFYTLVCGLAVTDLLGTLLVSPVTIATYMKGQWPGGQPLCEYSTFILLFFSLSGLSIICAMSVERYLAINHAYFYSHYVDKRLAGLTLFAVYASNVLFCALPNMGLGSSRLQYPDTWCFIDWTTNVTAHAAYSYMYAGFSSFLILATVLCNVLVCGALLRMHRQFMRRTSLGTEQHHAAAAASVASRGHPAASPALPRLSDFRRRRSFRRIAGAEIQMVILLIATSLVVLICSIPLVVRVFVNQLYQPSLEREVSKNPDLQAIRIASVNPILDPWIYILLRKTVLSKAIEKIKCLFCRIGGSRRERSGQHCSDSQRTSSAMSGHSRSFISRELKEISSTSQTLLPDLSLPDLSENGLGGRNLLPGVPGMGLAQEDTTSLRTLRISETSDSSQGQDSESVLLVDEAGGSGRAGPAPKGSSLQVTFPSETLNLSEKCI

TRPM8 = TRPM8 (Homo sapiens, UniProt Q7Z2W7); assay: TRPM8 channel antagonism, functional assay; assay type: cell-based; settings: 150 μM
TRPM8, sequence (Q7Z2W7 whole entry, species assumed): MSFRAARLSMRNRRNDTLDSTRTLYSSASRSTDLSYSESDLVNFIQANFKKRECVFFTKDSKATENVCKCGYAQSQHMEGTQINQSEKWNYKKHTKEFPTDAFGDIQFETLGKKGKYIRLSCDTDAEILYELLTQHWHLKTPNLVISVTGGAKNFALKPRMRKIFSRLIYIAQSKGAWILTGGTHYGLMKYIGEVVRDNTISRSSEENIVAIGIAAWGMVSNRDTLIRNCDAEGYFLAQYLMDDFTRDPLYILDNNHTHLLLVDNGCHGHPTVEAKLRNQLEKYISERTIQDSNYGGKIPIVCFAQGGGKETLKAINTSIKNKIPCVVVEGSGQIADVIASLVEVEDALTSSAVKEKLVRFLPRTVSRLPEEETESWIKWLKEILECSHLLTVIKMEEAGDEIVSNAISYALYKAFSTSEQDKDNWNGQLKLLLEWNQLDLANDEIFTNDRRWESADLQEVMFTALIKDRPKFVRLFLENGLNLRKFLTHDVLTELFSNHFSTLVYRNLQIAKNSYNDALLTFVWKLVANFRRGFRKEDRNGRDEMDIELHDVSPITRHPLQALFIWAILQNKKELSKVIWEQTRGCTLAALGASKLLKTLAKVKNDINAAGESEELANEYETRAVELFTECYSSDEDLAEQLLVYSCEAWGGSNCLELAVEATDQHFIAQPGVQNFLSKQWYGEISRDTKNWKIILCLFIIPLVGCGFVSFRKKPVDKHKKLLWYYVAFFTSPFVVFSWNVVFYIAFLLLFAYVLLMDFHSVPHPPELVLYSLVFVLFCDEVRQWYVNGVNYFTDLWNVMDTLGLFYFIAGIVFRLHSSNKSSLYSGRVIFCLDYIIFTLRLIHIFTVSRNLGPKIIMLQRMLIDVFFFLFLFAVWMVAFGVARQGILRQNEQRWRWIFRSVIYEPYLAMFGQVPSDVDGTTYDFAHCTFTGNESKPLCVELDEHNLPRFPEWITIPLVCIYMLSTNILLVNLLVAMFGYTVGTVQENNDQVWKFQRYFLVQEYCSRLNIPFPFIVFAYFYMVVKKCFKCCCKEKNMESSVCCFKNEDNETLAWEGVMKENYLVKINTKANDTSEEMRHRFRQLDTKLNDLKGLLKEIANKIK

5-lipoxygenase (5-LO) = target: T2, 5-lipoxygenase (5-LO) (Homo sapiens, UniProt P09917); assay: 5-LO inhibition assay, Method A (Cerep), cell-free functional; assay type: biochemical; settings: 150 μM; read-out: 5-LO inhibition at the assayed concentration
T2 sequence (P09917 1-674): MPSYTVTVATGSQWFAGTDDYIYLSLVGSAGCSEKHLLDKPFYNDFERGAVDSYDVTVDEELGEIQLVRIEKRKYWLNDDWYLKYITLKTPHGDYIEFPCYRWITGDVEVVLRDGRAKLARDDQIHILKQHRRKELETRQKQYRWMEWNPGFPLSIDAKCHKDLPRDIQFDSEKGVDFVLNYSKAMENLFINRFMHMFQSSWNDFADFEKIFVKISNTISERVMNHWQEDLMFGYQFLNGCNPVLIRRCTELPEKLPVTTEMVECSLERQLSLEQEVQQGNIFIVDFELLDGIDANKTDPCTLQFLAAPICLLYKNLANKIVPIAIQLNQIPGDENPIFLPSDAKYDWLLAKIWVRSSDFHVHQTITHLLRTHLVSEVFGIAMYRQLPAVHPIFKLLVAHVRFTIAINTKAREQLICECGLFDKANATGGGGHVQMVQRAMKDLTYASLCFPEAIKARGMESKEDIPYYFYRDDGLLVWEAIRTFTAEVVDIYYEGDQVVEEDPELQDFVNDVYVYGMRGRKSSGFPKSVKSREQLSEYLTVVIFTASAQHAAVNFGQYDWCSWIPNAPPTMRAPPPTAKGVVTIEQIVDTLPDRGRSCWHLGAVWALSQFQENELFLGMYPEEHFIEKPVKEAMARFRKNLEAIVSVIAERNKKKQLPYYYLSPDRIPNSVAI
Procedure: Method A: 5-Lipoxygenase (5-LO), 12-lipoxygenase (12-LO) and 15-lipoxygenase-2 (15-LO-2) inhibition assays were performed at Cerep, SA (Celle l'Evescault, France) on a fee-for-service basis (Ref 0772^36, 0883^37 and 0893^38, respectively), as described in Table 1.

TRPV1 = TRPV1 (Homo sapiens, UniProt Q8NER1); assay: TRPV1 channel antagonism, functional assay; assay type: cell-based; settings: 150 μM
TRPV1, sequence (Q8NER1 whole entry, species assumed): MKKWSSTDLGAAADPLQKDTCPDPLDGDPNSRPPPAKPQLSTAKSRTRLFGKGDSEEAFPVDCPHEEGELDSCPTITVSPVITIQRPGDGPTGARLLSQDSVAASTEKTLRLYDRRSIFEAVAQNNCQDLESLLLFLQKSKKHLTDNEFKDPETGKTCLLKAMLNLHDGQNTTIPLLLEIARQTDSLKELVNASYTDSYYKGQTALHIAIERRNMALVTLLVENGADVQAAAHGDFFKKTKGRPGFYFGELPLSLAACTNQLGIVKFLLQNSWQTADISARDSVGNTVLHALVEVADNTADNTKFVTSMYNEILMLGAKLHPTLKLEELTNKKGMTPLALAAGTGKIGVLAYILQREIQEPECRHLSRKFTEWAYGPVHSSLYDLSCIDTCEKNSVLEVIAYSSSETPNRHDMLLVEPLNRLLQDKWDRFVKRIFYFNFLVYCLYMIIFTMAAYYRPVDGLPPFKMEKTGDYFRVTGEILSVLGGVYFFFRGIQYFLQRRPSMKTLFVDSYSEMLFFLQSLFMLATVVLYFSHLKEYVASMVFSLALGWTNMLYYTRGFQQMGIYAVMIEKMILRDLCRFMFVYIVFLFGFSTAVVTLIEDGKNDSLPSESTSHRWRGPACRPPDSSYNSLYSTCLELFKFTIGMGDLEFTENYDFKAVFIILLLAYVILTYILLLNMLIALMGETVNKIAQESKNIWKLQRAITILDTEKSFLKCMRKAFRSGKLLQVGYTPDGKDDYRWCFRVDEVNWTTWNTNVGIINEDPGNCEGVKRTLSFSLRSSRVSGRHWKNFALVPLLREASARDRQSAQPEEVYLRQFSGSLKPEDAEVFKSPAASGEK

5-LO = target: T3, 5-LO (Homo sapiens, UniProt P09917); assay: 5-LO activity in neutrophil homogenates; assay type: biochemical; parameters: endogenous in cells; host or cells: neutrophils isolated from peripheral blood of healthy adult volunteers; intact or sonicated homogenates; settings: neutrophil homogenates, with or without 1 mM DTT
T3 sequence (P09917 1-674): T2 sequence (P09917 1-674)
Procedure: Peripheral blood (University Hospital Jena, Germany) was withdrawn from healthy adult volunteers with consent that had not taken any anti-inflammatory drugs during the last 10 days, by venipuncture in heparinized tubes (16 IE heparin/mL blood). The blood was centrifuged at 4000 g for 20 min at 20° C. for preparation of leukocyte concentrates. Leukocyte concentrates were then subjected to dextran sedimentation and centrifugation on lymphocyte separation medium (LSM 1077, PAA, Colbe, Germany). Contaminating erythrocytes of pelleted neutrophils were removed by hypotonic Iysis. Neutrophils were then washed twice in ice-cold PBS and finally resuspended in PBS pH 7.4 containing 1 mg/mL glucose or in PBS pH 7.4 containing 1 mg/mL glucose plus 1 mM CaCl2 (PGC buffer) (purity>96-97%).
For analysis of 5-LO product formation in corresponding homogenates, neutrophils were resuspended in PBS containing 1 mM EDTA for 5 min at 4° C. and sonicated (4×10 s, 4° C.). Homogenates, corresponding to 5×10^6 cells/mL, were incubated with the test compounds or vehicle (0.1% DMSO) with or without 1 mM DTT for 15 min at 4° C., pre-warmed for 30 s at 37° C., and the reaction was started by the addition of 2 mM CaCl2 plus the indicated concentrations of AA (routinely 20 μM). The reaction was stopped after 10 min and the samples were analyzed as described for intact cells above.
Data are expressed as mean±S.E.M. IC50 values were calculated from averaged measurements at 6 different concentrations of the compound by nonlinear regression using GraphPad Prism software (San Diego, Calif.) one site binding competition. Statistical evaluation of the data was performed by one-way ANOVA followed by a Tukey-Kramer post-hoc test for multiple comparisons respectively. A p value<0.05 (*) was considered significant.

Dependence of inhibition on DTT (5-LO)	Structure (SMILES)	EP3 antagonist effect (EP3) [%]	EP4 antagonist effect (EP4) [%]	TRPM8 antagonist effect (TRPM8) [%]	inhibition at 150 µM (5-lipoxygenase (5-LO)) [%]	TRPV1 antagonist effect (TRPV1) [%]
–	CC(C)=CCC1=C(O)C(=O)c2ccccc2C1=O [Compound 2, 2-hydroxy-3-(3′-methyl-2′-butenyl)-1,4-naphthoquinone]	50	56	91	87	65
independent of DTT	CC(c1cc2ccccc2s1)N(O)C(N)=O (stereo not drawn) [zileuton, reference compound]	–	–	–	–	–
